Patent US11046699B2, “Pyrazolo-pyrimidin-amino-cycloalkyl compounds and their therapeutic uses” (RAPT THERAPEUTICS, INC., priority 2018, dated 2021)
Read-outs that look alike come from different tables or passages of the source.

Target: GCN2 (Homo sapiens, UniProt Q9P2K8)
Assay: GCN2 enzymatic endpoint assay: phosphorylation of GFP-eIF2α measured by TR-FRET (Lanthascreen)
Format: biochemical
Method in brief: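 2 μM ATP, 80 nM GFP-eIF2α, RT, 90 min; EDTA stop. Tb-anti-phospho antibody TR-FRET read, 520/495 nm ratio.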

[1] = GCN2 biochemical IC50, 4 nM GCN2, 2 μM ATP, 80 nM GFP-eIF2α, 90 min RT, read-out: GCN2 activity
[2] = tested as described in Example 77, compound and/or hydrochloride, dihydrochloride or trifluoroacetic acid salt, read-out: IC 50 Activity

Sequence of GCN2 (Q9P2K8 whole entry): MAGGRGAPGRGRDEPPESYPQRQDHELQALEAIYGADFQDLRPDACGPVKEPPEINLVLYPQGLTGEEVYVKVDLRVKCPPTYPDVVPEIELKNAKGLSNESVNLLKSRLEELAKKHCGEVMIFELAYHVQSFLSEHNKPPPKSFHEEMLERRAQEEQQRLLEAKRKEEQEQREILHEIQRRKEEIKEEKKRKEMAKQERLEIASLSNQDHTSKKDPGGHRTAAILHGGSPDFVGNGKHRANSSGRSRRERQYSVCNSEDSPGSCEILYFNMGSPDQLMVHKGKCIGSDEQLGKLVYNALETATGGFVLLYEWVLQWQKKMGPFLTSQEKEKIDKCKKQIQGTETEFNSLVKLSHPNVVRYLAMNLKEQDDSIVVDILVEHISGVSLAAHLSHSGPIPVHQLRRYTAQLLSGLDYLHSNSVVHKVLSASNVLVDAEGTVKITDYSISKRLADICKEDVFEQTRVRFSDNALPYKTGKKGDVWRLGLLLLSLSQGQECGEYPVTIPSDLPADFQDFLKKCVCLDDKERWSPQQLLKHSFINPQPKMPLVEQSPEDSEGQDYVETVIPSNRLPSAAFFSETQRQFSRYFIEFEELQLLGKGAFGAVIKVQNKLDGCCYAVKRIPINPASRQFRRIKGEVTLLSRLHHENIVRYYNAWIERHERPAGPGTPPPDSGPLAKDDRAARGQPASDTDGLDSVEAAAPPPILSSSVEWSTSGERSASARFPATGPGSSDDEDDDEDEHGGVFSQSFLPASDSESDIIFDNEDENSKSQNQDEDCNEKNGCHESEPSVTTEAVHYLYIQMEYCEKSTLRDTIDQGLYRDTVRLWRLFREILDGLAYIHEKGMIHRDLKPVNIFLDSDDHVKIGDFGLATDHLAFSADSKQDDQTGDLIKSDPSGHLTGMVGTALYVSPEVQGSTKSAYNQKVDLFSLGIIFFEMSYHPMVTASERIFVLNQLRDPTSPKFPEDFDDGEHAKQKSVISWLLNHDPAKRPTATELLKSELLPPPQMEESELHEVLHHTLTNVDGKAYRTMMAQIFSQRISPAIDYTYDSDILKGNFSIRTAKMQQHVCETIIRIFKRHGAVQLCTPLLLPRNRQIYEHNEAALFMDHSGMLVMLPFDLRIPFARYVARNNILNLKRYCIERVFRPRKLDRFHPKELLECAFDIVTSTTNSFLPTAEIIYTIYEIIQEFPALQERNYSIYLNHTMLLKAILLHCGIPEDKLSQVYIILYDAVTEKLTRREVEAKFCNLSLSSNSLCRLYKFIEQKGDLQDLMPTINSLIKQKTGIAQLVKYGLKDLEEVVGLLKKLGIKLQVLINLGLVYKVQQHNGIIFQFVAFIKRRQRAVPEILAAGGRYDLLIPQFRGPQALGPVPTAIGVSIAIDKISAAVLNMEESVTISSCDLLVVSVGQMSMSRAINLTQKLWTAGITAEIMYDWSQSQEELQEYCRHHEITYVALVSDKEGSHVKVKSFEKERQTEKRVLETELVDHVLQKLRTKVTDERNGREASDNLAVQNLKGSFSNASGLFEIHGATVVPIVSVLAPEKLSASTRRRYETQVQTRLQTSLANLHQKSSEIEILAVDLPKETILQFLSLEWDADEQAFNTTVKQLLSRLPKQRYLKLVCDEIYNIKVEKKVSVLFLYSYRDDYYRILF

| SMILES | IC50 [1] [nM] | IC50 [2] [nM] |
| --- | --- | --- |
| COCCNC(=O)[C@@H]1CC[C@@H](Nc2ncc3c(Br)nn(-c4ccc(-c5cccnc5)cc4)c3n2)C1 [Example 24, (1R,3R)-3-((3-bromo-1-(4-(pyridin-3-yl)phenyl)-1H-pyrazolo[3,4-d]pyrimidin-6-yl)amino)-N-(2-methoxyethyl)cyclopentane-1-carboxamide] | 200 to 500 | – |
| CNC(=O)[C@@H]1CC[C@@H](Nc2ncc3c(Br)nn(-c4cc(F)c5ncccc5c4)c3n2)C1 [Example 8, (1R,3R)-3-((3-bromo-1-(8-fluoroquinolin-6-yl)-1H-pyrazolo[3,4-d]pyrimidin-6-yl)amino)-N-methylcyclopentane-1-carboxamide] | 25 to 200 | – |
| CC(F)(F)CNC(=O)[C@@H]1CC[C@@H](Nc2ncc3c(Br)nn(-c4cc(C#N)c5ncccc5c4)c3n2)C1 [(1R,3R)-3-((3-bromo-1-(8-cyanoquinolin-6-yl)-1H-pyrazolo[3,4-d]pyrimidin-6-yl)amino)-N-(2,2-difluoropropyl)cyclopentane-1-carboxamide] | – | 25 to 200 |
| COC[C@@H](C)NC(=O)[C@@H]1CCC[C@@H](Nc2ncc3c(Br)nn(-c4ccc5ncccc5c4)c3n2)C1 [(1R,3R)-3-((3-bromo-1-(quinolin-6-yl)-1H-pyrazolo[3,4-d]pyrimidin-6-yl)amino)-N-((R)-1-methoxypropan-2-yl)cyclohexane-1-carboxamide] | – | 500 to 1000 |
| O=C(NC[C@H]1COCCN1)[C@@H]1CC[C@@H](Nc2ncc3c(Br)nn(-c4ccc5ncccc5c4)c3n2)C1 [(1R,3R)-3-((3-bromo-1-(quinolin-6-yl)-1H-pyrazolo[3,4-d]pyrimidin-6-yl)amino)-N-(((S)-morpholin-3-yl)methyl)cyclopentane-1-carboxamide] | – | 25 to 200 |
| CNC(=O)[C@]1(C)CC[C@@H](Nc2ncc3c(Br)nn(-c4ccc5c(c4)OCC(=O)N5CCO)c3n2)C1 [(1R,3R)-3-[[3-bromo-1-[4-(2-hydroxy-ethyl)-3-oxo-1,4-benzoxazin-7-yl]pyrazolo[3,4-d]pyrimidin-6-yl]amino]-N,1-dimethyl-cyclopentanecarboxamide] | – | 25 to 200 |
| CNC(=O)[C@]1(C)CC[C@@H](Nc2ncc3c(Br)nn(-c4cc(Br)cc(C(C)O)c4)c3n2)C1 (some centres unmarked) | – | 25 to 200 |
| Cc1nnc(-c2ccc(-n3nc(Br)c4cnc(N[C@@H]5CC[C@](C(=O)N6CCNCC6)(C(C)C)C5)nc43)cc2CCC(N)=O)s1 [Example 28, 3-(5-(3-bromo-6-(((1R,3R)-3-isopropyl-3-(piperazine-1-carbonyl)cyclopentyl)amino)-1H-pyrazolo[3,4-d]pyrimidin-1-yl)-2-(5-methyl-1,3,4-thiadiazol-2-yl)phenyl)propanamide; 2,2,2-trifluoroacetic acid] | < 25 | – |
| Cc1nnc(-c2ccc(-n3nc(Br)c4cnc(N[C@@H]5CC[C@@](C)(C(=O)NC6CC6)C5)nc43)cc2)s1 [(1R,3R)-3-[[3-bromo-1-[4-(5-methyl-1,3,4-thiadiazol-2-yl)phenyl]pyrazolo[3,4-d]pyrimidin-6-yl]amino]-N-cyclopropyl-1-methyl-cyclopentanecarboxamide] | – | 25 to 200 |
| CNC(=O)[C@]1(C)CC[C@@H](Nc2ncc3c(Br)nn(-c4ccc5ncc(CCO)cc5c4)c3n2)C1 [(1R,3R)-3-[[3-bromo-1-[3-(2-hydroxyethyl)-6-quinolyl]pyrazolo[3,4-d]pyrimidin-6-yl]amino]-N,1-dimethyl-cyclopentane-carboxamide] | – | < 25 |
| CNC(=O)[C@]1(C)CC[C@@H](Nc2ncc3c(Br)nn(-c4cc(Cl)c(F)c(CN)c4)c3n2)C1 | – | 25 to 200 |
| CNC(=O)C1(C)CC[C@@H](Nc2ncc3c(Br)nn(-c4cc(Cl)cc(CO)c4)c3n2)C1 (stereo partly drawn) [(3R)-3-[[3-bromo-1-[3-chloro-5-(hydroxy-methyl)phenyl]pyrazolo[3,4-d]pyrimidin-6-yl]amino]-N,1-dimethyl-cyclopentane-carboxamide] | – | 25 to 200 |
| COCCNC(=O)[C@@H]1CC[C@@H](Nc2ncc3c(Br)nn(-c4ccc(-n5cccn5)cc4)c3n2)C1 [(1R,3R)-3-((1-(4-(1H-pyrazol-1-yl)phenyl)-3-bromo-1H-pyrazolo[3,4-d]pyrimidin-6-yl)amino)-N-(2-methoxyethyl)cyclopentane-1-carboxamide] | – | 200 to 500 |
| COCCNC(=O)[C@H]1CC[C@H](Nc2ncc3c(Br)nn(-c4ccc5ncccc5c4)c3n2)C1 [(1S,3S)-3-((3-bromo-1-(quinolin-6-yl)-1H-pyrazolo[3,4-d]pyrimidin-6-yl)amino)-N-(2-methoxyethyl)cyclopentane-1-carboxamide] | – | 500 to 1000 |
| Cc1nnc(-c2ccc(-n3nc(Br)c4cnc(N[C@@H]5CC[C@@H](C(=O)N6CCN(C)C(=O)C6)C5)nc43)cc2)o1 [4-((1R,3R)-3-((3-bromo-1-(4-(5-methyl-1,3,4-oxadiazol-2-yl)phenyl)-1H-pyrazolo[3,4-d]pyrimidin-6-yl)amino)cyclopentane-1-carbonyl)-1-methylpiperazin-2-one] | – | 25 to 200 |
| N#Cc1cc(-n2nc(Br)c3cnc(N[C@@H]4CC[C@@H](C(=O)N[C@H]5CCNC5)C4)nc32)cc2cccnc12 [(1R,3R)-3-((3-bromo-1-(8-cyanoquinolin-6-yl)-1H-pyrazolo[3,4-d]pyrimidin-6-yl)amino)-N-((S)-pyrrolidin-3-yl)cyclopentane-1-carboxamide] | – | < 25 |
| CNC(=O)[C@]1(C)CC[C@@H](Nc2ncc3c(Br)nn(-c4cc(C5=CCNC5)c5ncccc5c4)c3n2)C1 [(1R,3R)-3-[[3-bromo-1-[8-(2,5-dihydro-1H-pyrrol-3-yl)-6-quinolyl]pyrazolo [3,4-d]pyrimidin-6-yl]amino]-N,1-dimethyl-cyclopentanecarboxamide] | – | 25 to 200 |
| COCCNC(=O)[C@@H]1CC[C@@H](Nc2ncc3c(Br)nn(-c4ccc5ncc(F)cc5c4)c3n2)C1 [(1R,3R)-3-((3-bromo-1-(3-fluoroquinolin-6-yl)-1H-pyrazolo[3,4-d]pyrimidin-6-yl)amino)-N-(2-methoxyethyl)cyclopentane-1-carboxamide] | – | 25 to 200 |
| CNC(=O)[C@]1(C)CC[C@@H](Nc2ncc3c(Br)nn(-c4ccc5cncnc5c4)c3n2)C1 | – | 25 to 200 |
| CNC(=O)[C@]1(C)CC[C@@H](Nc2ncc3c(Br)nn(-c4cccc(NC5COC5)c4)c3n2)C1 [(1R,3R)-3-[[3-bromo-1-[3-(oxetan-3-ylamino)phenyl]pyrazolo[3,4-d]pyrimidin-6-yl]amino]-N,1-dimethyl-cyclopentanecarboxamide] | – | 25 to 200 |
| CNC(=O)[C@]1(C)CC[C@@H](Nc2ncc3c(Br)nn(-c4ccc5c(c4)OCC(=O)N5CC#N)c3n2)C1 [(1R,3R)-3-[[3-bromo-1-[4-(cyanomethyl)-3-oxo-1,4-benzoxazin-7-yl]pyrazolo[3,4-d]pyrimidin-6-yl]amino]-N,1-dimethyl-cyclopentanecarboxamide] | – | 25 to 200 |
| O=C([C@@H]1CC[C@@H](Nc2ncc3c(Br)nn(-c4cc(F)c5ncccc5c4)c3n2)C1)N1CCC(O)(C(=O)O)C1 (stereo partly drawn) [1-((1R,3R)-3-((3-bromo-1-(8-fluoroquinolin-6-yl)-1H-pyrazolo[3,4-d]pyrimidin-6-yl)amino)cyclopentane-1-carbonyl)-3-hydroxy-pyrrolidine-3-carboxylic acid] | – | 500 to 1000 |
| CNS(=O)(=O)C1CC[C@@H](Nc2ncc3c(Br)nn(-c4ccc(-c5nnc(C)s5)c(CCC#N)c4)c3n2)C1 (stereo partly drawn) [(3R)-3-[[3-bromo-1-[3-(2-cyanoethyl)-4-(5-methyl-1,3,4-thiadiazol-2-yl)phenyl]pyrazolo[3,4-d]pyrimidin-6-yl]amino]-N-methyl-cyclopentanesulfonamide] | – | 25 to 200 |
